Laboratory results as given in the supplement of paper PMC6045584.
± gives the standard deviation of the averaged measurements.

What was measured:
[1] = compound: CNC(=O)c1ccc(N2C(=S)N(c3ccc(C#N)c(C(F)(F)F)c3)C(=O)C2(C)C)cc1F [MDV3100]; assay: surviving fraction relative to DMSO-only wells; higher = less growth inhibition; details: exposure time: 5 days
How it was run: (§1)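 Luminescence normalised to the median of DMSO-only wells defines surviving fraction, with viability read by CellTiter-Glo. Signal was recorded after 10 minutes at room temperature, once log-phase tumour cell lines seeded at 250–500 cells per well in 384-well plates had spent 24 hours settling and then five days under continuous exposure to inhibitors at 0.5, 1, 5, 10, 50, 100, 500 and 1000 nM.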

[2] = compound: CC[C@@H]1C(=O)N(C)c2cnc(Nc3ccc(C(=O)NC4CCN(C)CC4)cc3OC)nc2N1C1CCCC1 [BI-2536]; assay: as above; details: exposure time: 5 days
How it was run: as §1

[3] = compound: CCCCCCCCCCCCCCCC(=O)Nc1ccn([C@@H]2O[C@H](CO)[C@@H](O)[C@@H]2C#N)c(=O)n1 [SAPACITABINE]; assay: area under dose-response curve of surviving fraction (unscaled, Aref=0) (surviving fraction x log10(nM)); higher = more resistant; details: exposure time: 5 days; dose range 0.5-1000 nM
How it was run: (§2)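 Tumour cell lines in 384-well plates were exposed for five days to eight inhibitor concentrations from 0.5 to 1000 nM. Viability was read by CellTiter-Glo luminescence, normalised to DMSO-only wells, in three screens per line. Dose-response survival curves were fitted to surviving fractions by 3-parameter logistic regression in the drc R package. Area under the curve is the unscaled activity area (Aref = 0) over log10 dose.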

[4] = compound: CN(C)C/C=C/C(=O)Nc1cc2c(Nc3ccc(F)c(Cl)c3)ncnc2cc1O[C@H]1CCOC1 [AFATINIB]; assay: as above; details: exposure time: 5 days; dose range 0.5-1000 nM
How it was run: as §2

[5] = compound: Nc1nc2[nH]cnc2c(=S)[nH]1 [TIOGUANINE]; assay: as above; details: exposure time: 5 days; dose range 0.5-1000 nM
How it was run: as §2

[6] = compound: Cn1cc(C2=Nc3cc(NC(=O)C(N)C4CCCCC4)cc4c3C2=CNNC4=O)cn1; assay: as above; details: exposure time: 5 days; dose range 0.5-1000 nM
How it was run: as §2

Test System	surviving fraction ([1]; 0.5 nM)	surviving fraction ([1]; 1 nM)	surviving fraction ([1]; 5 nM)	surviving fraction ([1]; 10 nM)	surviving fraction ([1]; 50 nM)	surviving fraction ([1]; 100 nM)	surviving fraction ([1]; 500 nM)	surviving fraction ([1]; 1000 nM)	surviving fraction ([2]; 0.5 nM)	surviving fraction ([2]; 1 nM)	surviving fraction ([2]; 5 nM)	surviving fraction ([2]; 10 nM)	surviving fraction ([2]; 50 nM)	surviving fraction ([2]; 100 nM)	surviving fraction ([2]; 500 nM)	surviving fraction ([2]; 1000 nM)	area under dose-response curve [3]	area under dose-response curve [4]	area under dose-response curve [5]	area under dose-response curve [6]
MCF7 BREAST	0.84 ± 0.029	0.822 ± 0.031	0.866 ± 0.058	0.767 ± 0.038	0.932 ± 0.03	0.992 ± 0.025	0.97 ± 0.014	0.897 ± 0.028	0.911 ± 0.071	0.913 ± 0.07	0.797 ± 0.074	0.445 ± 0.018	0.408 ± 0.021	0.38 ± 0.022	0.394 ± 0.01	0.319 ± 0.0042	2.58	3.17	2.83	2.85
MDAMB157 BREAST	0.935 ± 0.093	0.954 ± 0.071	0.933 ± 0.049	1.01 ± 0.079	0.927 ± 0.077	0.952 ± 0.071	0.853 ± 0.044	0.866 ± 0.097	0.912 ± 0.041	0.62 ± 0.19	0.0967 ± 0.0025	0.0937 ± 0.013	0.093 ± 0.0095	0.157 ± 0.033	0.224 ± 0.013	0.255 ± 0.0076	2.24	3.17	3.03	2.88
MDAMB231 BREAST	0.961 ± 0.034	0.954 ± 0.035	0.978 ± 0.022	0.969 ± 0.012	0.988 ± 0.034	0.997 ± 0.025	0.96 ± 0.026	0.944 ± 0.014	0.975 ± 0.02	0.954 ± 0.01	0.425 ± 0.015	0.385 ± 0.011	0.39 ± 0.011	0.391 ± 0.0073	0.338 ± 0.013	0.245 ± 0.0063	2.9	3.07	3.15	2.84
MDAMB361 BREAST	0.907 ± 0.073	0.81 ± 0.075	0.935 ± 0.068	0.874 ± 0.074	0.831 ± 0.14	0.806 ± 0.074	0.921 ± 0.085	0.831 ± 0.077	0.674 ± 0.046	0.617 ± 0.026	0.578 ± 0.051	0.637 ± 0.0066	0.565 ± 0.026	0.517 ± 0.013	0.245 ± 0.0072	0.21 ± 0.028	2.49	2.35	2.95	1.88
MDAMB436 BREAST	0.965 ± 0.086	0.884 ± 0.076	0.9783 ± 0.0076	0.95 ± 0.024	0.999 ± 0.1	0.9082 ± 0.0022	0.925 ± 0.083	0.86 ± 0.036	0.841 ± 0.027	0.649 ± 0.065	0.4 ± 0.048	0.27 ± 0.0028	0.331 ± 0.017	0.379 ± 0.032	0.394 ± 0.027	0.38 ± 0.04	2.05	2.99	2.8	2.31
MDAMB453 BREAST	0.953 ± 0.045	0.942 ± 0.071	0.962 ± 0.055	0.98 ± 0.07	0.956 ± 0.054	0.967 ± 0.037	0.985 ± 0.032	0.924 ± 0.0079	0.994 ± 0.018	0.763 ± 0.052	0.178 ± 0.019	0.156 ± 0.025	0.173 ± 0.017	0.171 ± 0.0075	0.108 ± 0.031	0.0703 ± 0.042	3.1	2.7	3.28	2.33
MFM223 BREAST	1.1 ± 0.12	1.14 ± 0.17	1.19 ± 0.17	1.12 ± 0.17	1.06 ± 0.074	1.08 ± 0.041	1.09 ± 0.036	1.02 ± 0.095	0.818 ± 0.041	0.338 ± 0.017	0.0768 ± 0.0068	0.0932 ± 0.0063	0.137 ± 0.012	0.148 ± 0.012	0.141 ± 0.011	0.106 ± 0.016	2.85	3.2	3.53	2.38
MG63 BONE	0.988 ± 0.0044	0.953 ± 0.026	1.01 ± 0.015	0.999 ± 0.028	1.02 ± 0.013	1.02 ± 0.019	0.968 ± 0.03	0.931 ± 0.011	1.057 ± 0.0095	1.02 ± 0.053	0.884 ± 0.049	0.0403 ± 0.0059	0.033 ± 0.0017	0.023 ± 0.0017	0.029 ± 0.001	0.03 ± 0.001	2.19	3.27	3.29	2.46
MHM BONE	1 ± 0.039	1 ± 0.054	1.01 ± 0.025	1.01 ± 0.039	1.02 ± 0.02	1.01 ± 0.029	0.973 ± 0.012	0.952 ± 0.0046	1.02 ± 0.021	0.993 ± 0.017	1.03 ± 0.023	0.831 ± 0.058	0.404 ± 0.013	0.327 ± 0.026	0.248 ± 0.0076	0.258 ± 0.015	2.69	3.27	3.29	2.98
NCIH441 LUNG	1.02 ± 0.05	1.04 ± 0.066	1.03 ± 0.052	1 ± 0.071	1.05 ± 0.077	0.924 ± 0.11	0.956 ± 0.16	0.863 ± 0.11	1.03 ± 0.16	0.859 ± 0.11	0.571 ± 0.057	0.499 ± 0.041	0.502 ± 0.03	0.507 ± 0.022	0.36 ± 0.028	0.228 ± 0.01	2.28	3.02	3.28	2.85
NOS1 BONE	1.18 ± 0.11	1 ± 0.043	1.11 ± 0.069	1.1 ± 0.2	1.04 ± 0.062	1.16 ± 0.086	0.972 ± 0.073	1.03 ± 0.027	1.01 ± 0.12	0.839 ± 0.089	0.338 ± 0.056	0.296 ± 0.046	0.341 ± 0.074	0.387 ± 0.002	0.334 ± 0.034	0.328 ± 0.02	2.87	2.86	3.79	2.73
NY BONE	0.886 ± 0.021	0.887 ± 0.029	0.943 ± 0.035	0.933 ± 0.023	0.93 ± 0.0093	1.01 ± 0.022	0.924 ± 0.026	0.884 ± 0.039	0.988 ± 0.025	0.851 ± 0.01	0.051 ± 0.0035	0.0633 ± 0.0051	0.17 ± 0.023	0.305 ± 0.0079	0.372 ± 0.0087	0.298 ± 0.03	1.91	3.1	3.27	2.01
OS25HAL BONE	0.968 ± 0.03	0.932 ± 0.015	0.962 ± 0.018	0.959 ± 0.011	1.06 ± 0.013	1.06 ± 0.03	1.04 ± 0.026	1.01 ± 0.057	1.003 ± 0.006	0.933 ± 0.064	0.0997 ± 0.016	0.0533 ± 0.0029	0.0483 ± 0.0015	0.0337 ± 0.004	0.0317 ± 0.0023	0.037 ± 0.002	2.79	3.28	3.21	2.71
S68 BREAST	0.974 ± 0.2	1.04 ± 0.035	1.08 ± 0.11	1.04 ± 0.027	1.24 ± 0.076	1.34 ± 0.2	0.962 ± 0.21	0.949 ± 0.22	0.884 ± 0.16	0.839 ± 0.12	0.343 ± 0.067	0.271 ± 0.039	0.166 ± 0.013	0.116 ± 0.04	0.0923 ± 0.022	0.067 ± 0.015	1.85	2.48	3.32	2.05
SAOS2 BONE	1.08 ± 0.054	1.07 ± 0.026	1.17 ± 0.026	1.07 ± 0.031	1.14 ± 0.033	1.14 ± 0.1	1.11 ± 0.085	1.07 ± 0.12	1.03 ± 0.036	0.875 ± 0.025	0.083 ± 0.0052	0.0753 ± 0.0023	0.146 ± 0.0046	0.194 ± 0.015	0.129	0.075	2.19	3.04	3.44	2.52
